Experiment [1] has as its target T1, Apoptotic protease-activating factor 1 (Homo sapiens, UniProt O14727).
T1 sequence (O14727 whole entry): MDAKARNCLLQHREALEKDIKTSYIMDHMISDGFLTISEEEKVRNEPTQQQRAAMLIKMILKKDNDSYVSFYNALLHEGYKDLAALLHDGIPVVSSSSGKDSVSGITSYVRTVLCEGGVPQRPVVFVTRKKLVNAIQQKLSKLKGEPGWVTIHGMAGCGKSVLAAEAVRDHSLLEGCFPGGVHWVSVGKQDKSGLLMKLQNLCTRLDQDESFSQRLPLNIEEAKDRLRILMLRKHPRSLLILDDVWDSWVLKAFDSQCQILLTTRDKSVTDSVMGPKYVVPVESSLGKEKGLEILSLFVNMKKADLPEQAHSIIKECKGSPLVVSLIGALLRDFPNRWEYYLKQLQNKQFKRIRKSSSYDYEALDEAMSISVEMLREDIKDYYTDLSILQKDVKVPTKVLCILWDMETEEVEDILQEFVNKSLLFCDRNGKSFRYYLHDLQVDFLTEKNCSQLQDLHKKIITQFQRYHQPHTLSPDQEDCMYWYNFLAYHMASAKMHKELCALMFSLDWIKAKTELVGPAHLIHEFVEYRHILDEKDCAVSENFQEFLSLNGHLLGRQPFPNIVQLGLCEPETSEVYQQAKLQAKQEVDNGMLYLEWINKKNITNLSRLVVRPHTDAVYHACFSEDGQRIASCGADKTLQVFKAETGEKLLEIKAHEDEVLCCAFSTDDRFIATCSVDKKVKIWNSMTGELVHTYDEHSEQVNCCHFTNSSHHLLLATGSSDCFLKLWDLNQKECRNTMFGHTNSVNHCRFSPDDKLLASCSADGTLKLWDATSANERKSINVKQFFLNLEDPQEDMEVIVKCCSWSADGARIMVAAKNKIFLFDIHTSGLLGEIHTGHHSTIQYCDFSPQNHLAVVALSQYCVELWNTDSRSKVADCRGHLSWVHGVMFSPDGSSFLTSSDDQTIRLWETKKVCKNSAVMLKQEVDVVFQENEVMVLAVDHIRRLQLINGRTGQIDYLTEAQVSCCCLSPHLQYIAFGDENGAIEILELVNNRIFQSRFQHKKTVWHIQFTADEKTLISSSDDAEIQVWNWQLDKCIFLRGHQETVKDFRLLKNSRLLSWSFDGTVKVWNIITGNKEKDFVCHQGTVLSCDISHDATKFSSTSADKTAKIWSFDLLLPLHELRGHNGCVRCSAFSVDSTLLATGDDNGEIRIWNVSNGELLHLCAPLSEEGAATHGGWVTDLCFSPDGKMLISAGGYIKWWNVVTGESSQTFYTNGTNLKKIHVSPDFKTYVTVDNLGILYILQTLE
The experiment is classed as functional.

Experiment [2] addresses Genome polyprotein (dengue virus type 2, UniProt P29990). Nature of the experiment: Dengue-2 NS5 methyltransferase inhibitors, primary screen, biochemical, confirmation dose response (AID 588689). The experiment is classed as functional.
For experiment [3], the target named is T2, Histone-lysine N-methyltransferase NSD2 (Homo sapiens, UniProt O96028).
T2 sequence (O96028 whole entry): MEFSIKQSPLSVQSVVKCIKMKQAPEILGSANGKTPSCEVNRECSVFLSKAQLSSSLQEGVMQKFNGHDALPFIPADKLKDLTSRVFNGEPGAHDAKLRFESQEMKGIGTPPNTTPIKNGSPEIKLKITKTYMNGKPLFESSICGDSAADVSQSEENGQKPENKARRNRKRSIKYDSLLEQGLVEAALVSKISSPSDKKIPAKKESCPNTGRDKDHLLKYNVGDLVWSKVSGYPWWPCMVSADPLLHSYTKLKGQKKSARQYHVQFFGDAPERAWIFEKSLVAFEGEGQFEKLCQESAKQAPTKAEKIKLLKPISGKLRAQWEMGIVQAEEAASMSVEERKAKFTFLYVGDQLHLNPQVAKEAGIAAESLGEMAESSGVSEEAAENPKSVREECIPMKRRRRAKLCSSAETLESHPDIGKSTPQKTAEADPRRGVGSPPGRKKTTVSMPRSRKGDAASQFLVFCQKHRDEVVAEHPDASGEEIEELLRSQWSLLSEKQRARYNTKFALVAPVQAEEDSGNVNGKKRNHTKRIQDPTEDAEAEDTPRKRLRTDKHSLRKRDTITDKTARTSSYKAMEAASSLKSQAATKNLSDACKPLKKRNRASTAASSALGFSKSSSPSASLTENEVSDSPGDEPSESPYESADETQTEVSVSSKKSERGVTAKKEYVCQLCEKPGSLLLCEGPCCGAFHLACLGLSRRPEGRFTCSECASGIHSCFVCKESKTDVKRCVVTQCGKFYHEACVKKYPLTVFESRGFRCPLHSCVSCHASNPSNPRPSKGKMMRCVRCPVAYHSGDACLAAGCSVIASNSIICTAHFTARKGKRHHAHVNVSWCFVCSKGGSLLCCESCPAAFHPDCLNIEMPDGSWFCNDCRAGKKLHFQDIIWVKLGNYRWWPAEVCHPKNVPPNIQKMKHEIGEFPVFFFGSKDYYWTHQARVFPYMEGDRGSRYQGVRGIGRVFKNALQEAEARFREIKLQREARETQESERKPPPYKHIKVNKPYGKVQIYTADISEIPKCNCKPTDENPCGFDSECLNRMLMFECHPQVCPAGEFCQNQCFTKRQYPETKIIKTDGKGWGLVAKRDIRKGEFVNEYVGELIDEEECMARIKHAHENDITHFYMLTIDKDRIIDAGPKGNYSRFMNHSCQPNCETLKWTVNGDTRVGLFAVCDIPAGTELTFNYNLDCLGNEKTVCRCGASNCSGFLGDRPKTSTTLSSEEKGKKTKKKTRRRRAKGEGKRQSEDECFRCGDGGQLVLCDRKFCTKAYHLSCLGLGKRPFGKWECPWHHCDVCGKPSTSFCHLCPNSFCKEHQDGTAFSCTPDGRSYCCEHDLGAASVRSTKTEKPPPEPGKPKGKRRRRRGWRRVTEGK
The experiment is classed as biochemical.

Four compounds from ChEMBL document CHEMBL1201862, “PubChem BioAssay data set” (2004) can be followed below.

Molecules are shown by their SMILES. Active and inactive are the calls of the source.

Usually IC50 stands for the midpoint of a concentration-inhibition curve. One may read the AC50 as the concentration at which the activity in the assay is half-maximal.

Sequence of Genome polyprotein (P29990 2492-3391 limits assumed): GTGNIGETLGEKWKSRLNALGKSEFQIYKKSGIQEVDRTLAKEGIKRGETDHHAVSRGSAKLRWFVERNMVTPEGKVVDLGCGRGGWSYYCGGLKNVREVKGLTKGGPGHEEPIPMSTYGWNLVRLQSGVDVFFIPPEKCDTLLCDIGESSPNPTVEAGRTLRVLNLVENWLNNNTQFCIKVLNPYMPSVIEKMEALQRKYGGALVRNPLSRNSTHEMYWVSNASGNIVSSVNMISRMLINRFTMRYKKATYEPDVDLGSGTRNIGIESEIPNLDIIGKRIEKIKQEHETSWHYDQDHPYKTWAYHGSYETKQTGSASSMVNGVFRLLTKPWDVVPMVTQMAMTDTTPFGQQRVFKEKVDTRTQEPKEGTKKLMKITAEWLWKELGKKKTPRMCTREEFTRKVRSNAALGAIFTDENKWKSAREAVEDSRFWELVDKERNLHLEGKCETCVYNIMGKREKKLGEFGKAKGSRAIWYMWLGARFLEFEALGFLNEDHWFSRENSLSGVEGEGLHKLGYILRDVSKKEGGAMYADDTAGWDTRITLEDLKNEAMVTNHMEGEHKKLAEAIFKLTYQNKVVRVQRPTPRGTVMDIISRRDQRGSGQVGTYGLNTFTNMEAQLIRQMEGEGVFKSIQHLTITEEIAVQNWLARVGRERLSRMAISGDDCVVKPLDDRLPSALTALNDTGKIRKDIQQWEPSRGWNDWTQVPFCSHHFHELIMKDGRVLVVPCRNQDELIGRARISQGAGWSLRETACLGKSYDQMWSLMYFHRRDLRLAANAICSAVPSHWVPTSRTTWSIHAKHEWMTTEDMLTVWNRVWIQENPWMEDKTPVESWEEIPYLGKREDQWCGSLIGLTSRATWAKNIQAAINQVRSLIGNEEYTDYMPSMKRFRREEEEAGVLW

On to `Oc1nc(Nc2ccccc2Cl)cc2ccccc12`, for which the IC50 in experiment [1] is 6.11 µM (active).

In the case of `O=C1C=C(c2c(O)ccc3ccccc23)c2ccccc2C1=O`, the half-maximal inhibitory concentration (IC50) in experiment [2] is 5.91 µM (active). In addition, in experiment [3], the AC50 is 1.7 µM (active).

For the compound `O=C(CCN1C(=O)/C(=C\c2ccco2)SC1=S)Nc1ccc(C(=O)O)c(O)c1`, in experiment [2], the IC50 was > 100 µM (active). The half-maximal activity concentration (AC50) in experiment [3] was 13.8 µM (active).

In the case of `Cc1nc2c(=O)n(C)c(=O)nc-2n(C)n1`, the IC50 in experiment [1] is 0.0375 µM (active).
